Source: patent US3984470A, “Amidoxime derivatives and process for preparing the same” (priority 1974, dated 1976)

Key:
[1] = system: reserpine-induced hypothermia; test: Reserpine-induced hypothermia in the rat; assay type: in vivo, male rats CF1; settings: reserpine 5 mg/kg i.p., mean to 6th hour vs controls
Protocol: (§2) The thymoanaleptic properties of the compounds of the invention were determined by means of reserpine-induced ptosis and hypothermia in the rat.
An intraperitoneal dose of 5 mg/kg of reserpine was administered to batches of 5 male rats CF1 weighing an average of 300 g. Thirty minutes later, the rectal temperature was determined and then a dose of the compound to be tested was given by oral route, except to the control animals. The rectal temperature of all the animals including the controls was taken every hour up to the 6th hour.
The difference between these two averages enabled an estimation to be made regarding the antagonistic effect of the compounds of the invention on the hypothermia induced by reserpine.

toxicity of yohimbine = test: Potentiation of the toxicity of yohimbine (test of QUINTON); assay type: in vivo, male mice; settings: yohimbine hydrochloride 25 mg/kg i.p.; for mortality at 50 mg/kg: Mus musculus, 50 mg/kg oral, mortality after 24 hours
Protocol: Yohimbine is a substance which provokes an increase in the serotonine level in the brain or a decrease in norepinephrine according to the author.
For this purpose, the test of QUINTON was used which is described in Brit. J. Pharmacol. 21, 51 (1963). […] […] The percentage of mortality was noted after 24 hours.
Table III hereunder expresses the percentage of potentiation of the toxicity due to yohimbine in comparison with the controls.
The percentage in question was determined 24 hours after the administration of yohimbine.

[2] = system: aggressivity of killer rats; test: Aggressivity of killer rats; assay type: in vivo, male rats; settings: for antiaggressive properties: conclusion from Table V; for inhibition in vivo at 25 mg/kg: 25 mg/kg i.p.; for inhibition in vivo at 20 mg/kg: 20 mg/kg i.p.
Description: If, under certain conditions, male rats are kept alone in individual cages for several weeks, the become spontaneously aggressive towards any mouse, which they kill as soon as it is placed in the same cage. Mice were introduced one after another into cages containing an isolated rat and a selection was made of the rats which immediately killed three mice. In this way batches of 6 to 8 rats were constituted. The rats were then given the compound to be studied by intraperitoneal route in such a way that each batch received a higher dose than the preceding batch. […] Table V which follows contains the results obtained 30 minutes after administration of the compound to be studied.

reserpine-induced ptosis = test: Reserpine-induced ptosis in the rat; assay type: in vivo, male rats of the CF1 strain; settings: reserpine 5 mg/kg i.p., score scale 0-4, mean to 6th hour vs controls
Protocol: as §2
An intraperitoneal dose of 5 mg/kg of reserpine was administered to batches of 5 male rats of the CF1 strain weighing an average of 300 g.
Thirty minutes later a dose of the compound to be studied was given by oral route and the inhibitory effect of the reserpine was noted every hour up to the sixth hour. Ptosis was evaluated for each eye in accordance with the following scale:
4 : eyelids completely closed.
The difference between these two averages represents the average decrease of the ptosis in the treated animals as compared to the controls.

[3] = system: stereotypies induced by amphetamine; test: Potentiation of the stereotypies induced by amphetamine; assay type: in vivo, rats
Protocol: It is commonly admitted that amphetamine induces stereotypies by stimulating the dopaminergic receptors and inhibiting the re-uptake of dopamine into the neuron.
The thymoanaleptics potentiate these stereotypies.
Thirty minutes later, a dose of 10 mg/kg of the compound to be tested was given by oral route. Note was taken of the intensity of the stereotypies every 30 minutes for 150 minutes in accordance with the following scale which indicates the behaviour of the animal.
0 : the rat is motionless and asleep
1 : the rat is motionless and awake
3 : the rat stands on its hind paws and sniffs the lid of its cage in a stereotyped manner.
4 : the rat licks the walls of its cage in a stereotyped manner
5 : the rat bites the bars of its cage or sniffs the shavings of its litter in a stereotyped manner
6 : the rat chews the shavings in a stereotyped manner
The average of the 5 results obtained for each batch was calculated and compared with the average obtained with the control animals.
The difference between these averages represents the mean increase of the steroetypies of the treated animals in comparison with the controls.

spontaneous motricity = test: Spontaneous motricity in the mouse; assay type: in vivo; settings: 50 mg/kg intragastric, mouse
Protocol: Tests were also performed with a view to determining whether the compounds of the invention modify spontaneous motricity.

[4] = Toxicity, method of KARBER and BEHRENS, mice; settings: mouse, in vivo, mice, after 48 hours
Protocol: (§1) Finally, tests of toxicity were performed with compounds of the invention following the method of KARBER and BEHRENS.

[5] = system: aggressivity of isolated mice; test: Aggressivity of isolated mice; assay type: in vivo, male mouse
Protocol: If a male mouse is kept alone in a cage for 3 weeks to 1 month, it will spontanesouly attack any other animal of the same species which is placed in the same cage. If the other animal has also been isolated under the same conditions a series of fights takes place.
Mice were isolated for the period of time required to render them spontaneously aggressive. Couples were then put together and note was taken of the number of fights which took place over a period of 3 minutes. Each batch was composed of four pairs of mice.
The animals of each batch were then treated by intragastric route with the compound to be studied which was administered in such a way that each batch received a higher dose than the preceding batch. […]
The results were expressed in the percentage of decrease in the number of fights between the animals after treatment in comparison with the percentage obtained before treatment which represents the percentage of inhibition of aggressivity.

[6] = system: cholinergic effects provoked by tremorine; test: Cholinolytic properties: action with respect to tremorine; assay type: in vivo, male mice of the OF1 strain; settings: 20 mg/kg oral; tremorine 10 mg/kg; difference vs controls
Protocol: When injected into mice, tremorine and its metabolite, oxotremorine, produce central cholinergic effects, i.e. normal and provoked tremor as well as peripheral cholinergic effects i.e. weeping, sweating diarrhoea and salivation.
Male mice of the OF1 strain weighing 22 g, were divided into batches of 10. Each batch with the exception of the control animals, received, by oral route, a dose of the compound to be tested.
Thirty minutes later, 10 mg/kg of tremorine were administered to all the batches and thirty minutes after the injection of tremorine note was taken of the cholinergic effects on each animal in accordance with the following scale: […]

[7] = system: peripheral noradrenergic processes; settings: intravenous route; cited from earlier work
neuromuscular functions = test: Rotarod test of BOISSIER / neuromuscular functions; assay type: in vivo, mouse; settings: up to 40 mg/kg oral, for 3 hours after administration
[8] = Toxicity, method of KARBER and BEHRENS, rats; settings: rat, in vivo, rats, after 48 hours
Protocol: as §1

[9] = Rattus norvegicus, ip, 0.5 h, 30 minutes after administration
[10] = 10 mg/kg oral, amphetamine 10 mg/kg i.p., every 30 min for 150 min
[11] = 20 mg/kg, same conditions (amphetamine 10 mg/kg i.p.)

SMILES	Average inhibition of hypothermia (positive °C) ([1]; 10 mg/kg oral)	mortality at 50 mg/kg (toxicity of yohimbine)	Average decrease of Ptosis (reserpine-induced ptosis; 10 mg/kg oral)	inhibition in vivo at 25 mg/kg [2, 9]	Average increase of the stereotypies [3, 10]	inhibition in vivo at 20 mg/kg [2, 9]	also measured
CCC(Oc1cccc2ccccc12)C(N)=NO (stereo not drawn) [Compound 34]	1.1 °C	10%					inhibition in vivo at 1 mg/kg ([2]; Rattus norvegicus, ip, 0.5 h, 1 mg/kg i.p., 30 minutes after administration): 100%; antiaggressive properties [2]: powerful antiaggressive properties
NC(CCOc1cccc2ccccc12)=NO [Compound 6, 3-(1-Naphthyloxy)-propionamidoxime]		30%	1.5	30%			
CC(Oc1cccc2occc12)C(N)=NO (stereo not drawn) [Compound 3, 2-(4-Benzofuryloxy)-propionamidoxime]		40%	2.1		8.6	89%	Average inhibition of hypothermia (positive °C) ([1]; 20 mg/kg oral): 1 °C; influence on spontaneous motricity (spontaneous motricity): no influence on the spontaneous motricity; LD50 at 48 h ([4]; ip, intraperitoneal): 68 mg/kg
NC(CCOc1cccc2ccoc12)=NO [Compound 8, 3-(7-Benzofuryloxy)-propionamidoxime]	0.4 °C	30%	1.3	70%	5.6		influence on spontaneous motricity (spontaneous motricity): no influence on the spontaneous motricity
Cc1oc2ccccc2c1OCC(N)=NO [Compound 12, 2-(2-Methyl-3-benzofuryloxy)-acetamidoxime]			0.7	27%			
CN(C)CCCN1c2ccccc2CCc2ccccc21 [imipramine, 5-(3-dimethylaminopropyl)-10,11-dihydro-5H-dibenz [b,f] azepine, reference compound]	0.4 °C	50%				45%	Average decrease of Ptosis (reserpine-induced ptosis; 20 mg/kg oral): 1.6; Average increase of the stereotypies ([3]; 5 mg/kg, same conditions (intragastric), 150 minutes): 4.4; Average increase of the stereotypies [3, 11]: 6; inhibition of aggressivity ([5]; 20 mg/kg): 78%; dose of imipramine giving the same activity as Compound 1 ([5]; relative to 0.42 mg/kg of Compound 1, intragastric, 90 minutes): twenty-times greater; Central response tremor: Normal [6]: -4; Central response tremor: Provoked [6]: -0.4; Peripheral cholinergic response: Salivat. [6]: 0; Peripheral cholinergic response: Sweating [6]: -2; Peripheral cholinergic response: Weeping [6]: -0.8; dose potentiating the peripheral effects of exogenous norepinephrine [7]: ≥ 1 mg/kg
CC(Oc1cccc2ccoc12)C(N)=NO (stereo not drawn) [Compound 2, 2-(7-Benzofuryloxy)-propionamidoxime]		50%	2.4		9	50%	Average inhibition of hypothermia (positive °C) ([1]; 100 mg/kg oral): 0.8 °C; Average increase of the stereotypies ([3]; 0.05 mg/kg intragastric, 150 minutes): 9; influence on spontaneous motricity (spontaneous motricity): no influence on the spontaneous motricity; damage to the neuromuscular functions (neuromuscular functions): did not cause any damage to the neuromuscular functions up to 40 mg/kg; LD50 at 48 h ([4]; ip, intraperitoneal): 68 mg/kg; LD50 at 48 h ([4]; oral): 170 mg/kg; LD50 at 48 h ([8]; ip, intraperitoneal): 62.5 mg/kg; LD50 at 48 h ([8]; oral): 440 mg/kg
CC(C)(Oc1cccc2ccoc12)C(N)=NO [Compound 30, 2-(7-Benzofuryloxy)-2-methyl-propionamidoxime]						75%	Average decrease of Ptosis (reserpine-induced ptosis; 100 mg/kg oral): 2.3; Average inhibition of hypothermia (positive °C) ([1]; 100 mg/kg oral): 1 °C; Average increase of the stereotypies [3, 11]: 6.5
CC(Oc1cccc2c1OCC2)C(N)=NO (stereo not drawn) [Compound 9, 2-(2,3-Dihydro-7-benzofuryloxy)-propionamidoxime]	0.5 °C	10%	1.3		6.2		influence on spontaneous motricity (spontaneous motricity): no influence on the spontaneous motricity
NC(COc1ccc2occc2c1)=NO [Compound 5, 2-(5-Benzofuryloxy)-acetamidoxime]	0.5 °C	10%	1.9	60%			
Cc1oc2cc(OC(C)(C)C(N)=NO)ccc2c1C [Compound 4, 2-(2,3-Dimethyl-6-benzofuryloxy)-2-methyl-propionamidoxime]	0.6 °C	30%	2.1	25%	0.8		
CCC(Oc1cccc2c1OCCO2)C(N)=NO (stereo not drawn) [Compound 14, 2-[(1,4-Benzodioxanyl)-5-oxy]-butyramidoxime]	0.4 °C		0.6	80%	4.2		
Cc1cc2cc(OCC(N)=NO)ccc2o1 [Compound 33, 2-(2-Methyl-5-benzofuryloxy)-acetamidoxime]						60%	Average decrease of Ptosis (reserpine-induced ptosis; 100 mg/kg oral): 2.0; Average increase of the stereotypies [3, 11]: 4
NC(CCOc1ccc2ccccc2c1)=NO [Compound 18, 3-(2-Naphthyloxy)-propionamidoxime]		10%	0.4	100%			antiaggressive properties [2]: powerful antiaggressive properties
CCc1oc2ccccc2c1OC(C)(C)C(N)=NO [Compound 46, 2-(2-Ethyl-3-benzofuryloxy)-2-methyl-propionamidoxime]		10%		100%	6.6		
NC(COc1cccc2sccc12)=NO [Compound 26, 2-(4-Benzothienyloxy)-acetamidoxime]				27%			Average decrease of Ptosis (reserpine-induced ptosis; 20 mg/kg oral): 1.4; Potentiation of the toxicity of yohimbine (toxicity of yohimbine; 20 mg/kg oral, 24 hours): 50%; Mean increase of the stereotypies ([3]; 20 mg/kg oral, 5 mg/kg of amphetamine): 6.8
